Test results reported in publication PMC3375286, “Crystal Structures Reveal the Multi-Ligand Binding Mechanism of Staphylococcus aureus ClfB” (PLoS Pathogens, 2012).
Where no end group is shown, it is not given here.

Biological target: T1, ClfB(197–542) wildtype (Staphylococcus aureus, UniProt O86476)
T1 construct: The fragment of the ClfB gene (corresponding 197–542 aa) was amplified by PCR; His-tag; made in house; host or cells: E. coli BL21
T1 sequence (O86476 197-542): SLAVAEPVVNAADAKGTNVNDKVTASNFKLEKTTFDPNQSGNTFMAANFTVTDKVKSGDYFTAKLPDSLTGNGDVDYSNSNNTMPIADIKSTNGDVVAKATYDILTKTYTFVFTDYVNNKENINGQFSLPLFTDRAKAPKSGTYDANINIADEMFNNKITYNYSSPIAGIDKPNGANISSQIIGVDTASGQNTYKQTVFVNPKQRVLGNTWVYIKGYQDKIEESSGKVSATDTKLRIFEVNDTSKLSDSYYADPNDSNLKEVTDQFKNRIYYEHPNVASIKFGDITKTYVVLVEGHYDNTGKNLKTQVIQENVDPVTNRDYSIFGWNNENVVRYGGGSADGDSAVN
Test: SPR (ProteOn XPR36) binding of ClfB(197–542) wild type to immobilized peptide 15 from Dermokine
Details: SPR ProteOn XPR36, peptide captured on NLC Sensor Chip (460 RU), 25°C, 10 mM HEPES pH 7.2, 150 mM NaCl; ClfB(197–542) injected at 87.5-700 µM; repeated three times; read-out: dissociation constant (KD)
Procedure: Firstly, Derm was tested for its interaction with ClfB. To this end, we synthesized a 15-amino-acid-peptide (250–264; […], designated as Derm15 hereafter) derived from Derm and then characterized its binding to ClfB using the SPR (Surface Plasmon Resonance) assay. In the assay, ClfB bound to the peptide with a dissociation constant of 2.37 µM (Figure 7A). […] To understand the molecular mechanism underlying this interaction, we solved the crystal structure of ClfB(208–542) bound to the peptide at 2.5 Å resolution. As expected, Derm15 interacts with ClfB in a nearly identical manner with Fg α(316–328) and CK10(499–512) (Figure 7 B). The ClfB^Arg529 forms a hydrogen bond with […] and the C-terminus of N3 forms an extra strand, which is similar as that in the ClfB-Fg α(316–328) and ClfB-CK10(499–512) complexes (Figure 7 C). Mutagenesis studies were conducted to further verify the binding of Derm15 to ClfB. We replaced the residues ClfB^S236, W522 that participate in interactions with the peptide with alanine respectively. The mutant proteins were purified to homogeneity and tested for their interaction with the Derm peptide using SPR.
Figure 7 Dermokine is a potential ligand of ClfB. […] Red, 700 µM; blue, 350 µM; green, 87.5 µM. […]
Binding of ClfB(197–542) to peptide 15 was assessed by SPR using the ProteOn XPR36 equipment (Bio-Rad Laboratories, Inc.). […]

Molecule | Kd
GQSGSSGSGSNGDNN [Derm15] | 2.37 µM

Biological target: T2, Dermokine (Homo sapiens)
T2 chain: SQSGSSGSGSNGDNN
Test: SPR
Details: not given

Molecule | Kd
Clumping factor B 197-542 (protein) SLAVAEPVVNAADAKGTNVNDKVTASDFKLEKTAFDPNQSGNTFMAANFKVTGQVKSGDYFTAKLPDSVTGNGDVDYSNSNNTMPIADIKSTNGDVVAKATYDILTKTYTFVFTDYVNDKENINGQFSLPLFTDRAKAPKSGTYDANINIADEMFDNKITYNYSSPIAGIDKPNGANISSQIIGVDTASGQNTYKQTVFVNPKQRVLGNTWVYIKGYQDKIEESSGKVSATDTKLRIFEVNDTSKLSDSYYADPNDSNLKEVTGEFKDKISYKYDNVASINFGDINKTYVVLVEGHYDNTGKNLKTQVIQENIDPATGKDYSIFGWNNENVVRYGGGSADGDSAVN | 2.37 µM

Biological target: T3, ClfB (Staphylococcus aureus, UniProt O86476)
T3 construct: The fragment of the ClfB gene (corresponding 197–542 aa) was amplified by PCR; His-tag; made in house; host or cells: E. coli BL21
T3 sequence (O86476 197-542): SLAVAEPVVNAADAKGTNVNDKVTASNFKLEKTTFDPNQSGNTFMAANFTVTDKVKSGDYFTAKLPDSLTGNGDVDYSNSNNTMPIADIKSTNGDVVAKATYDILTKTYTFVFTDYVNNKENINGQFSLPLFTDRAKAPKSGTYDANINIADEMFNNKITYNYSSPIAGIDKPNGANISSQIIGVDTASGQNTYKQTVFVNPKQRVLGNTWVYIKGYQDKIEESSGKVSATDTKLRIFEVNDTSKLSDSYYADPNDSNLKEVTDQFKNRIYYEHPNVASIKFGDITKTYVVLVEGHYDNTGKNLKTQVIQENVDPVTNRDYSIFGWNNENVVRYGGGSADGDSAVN
Test: SPR (BIAcore T200) alanine scan of 9-residue GSR peptides and the 6-residue peptide on immobilized ClfB
Format: binding
Details: SPR BIAcore T200, 10°C; ClfB amine-coupled (~5300 RU) on CM5 chip; peptides 31.25-2000 µM in 10 mM HEPES pH 7.4, 150 mM NaCl, 0.005% Tween 20; 30 µl/min; 1:1 Langmuir fit
Procedure: A. Panel of dermokine peptides. […] Navy, 2000 µM; Magenta, 1000 µM; Dark cyan or dark yellow, 500 µM; Blue, 250 µM; Red, 125 µM; Green, 62.5 µM; Black, 31.25 µM.
The binding affinities between ClfB and the ten 9-amino–acid peptides and the 6-amino-acid peptide were determined by surface plasmon resonance (SPR) using BIAcore T200 instrument (GE Healthcare) at 10°C. The ClfB protein was immobilized to about 5300 Response Unit (RU) on a research-grade CM5 sensor chip in 10 mM sodium acetate, pH 5.0 by standard amine coupling method. The flow cell 1 was left blank as a reference. […] The ligands were allowed to associate for 60 s and dissociate for 120 s. Data were analyzed with the BIAcore T200 evaluation software by fitting to a 1∶1 Langmuir binding fitting model.

Molecule | Kd
ASSGSGSNG [Peptide2] | 1600 µM
GASGSGSNG [Peptide3] | 1240 µM
GSAGSGSNG [Peptide4] | 502 µM
GSSASGSNG [Peptide5] | 1140 µM
GSSGAGSNG [Peptide6] | 195 µM
GSSGSASNG [Peptide7] | 1610 µM
GSSGSG [Peptide11] | 833 µM
GSSGSGANG [Peptide8] | 326 µM
GSSGSGSAG [Peptide9] | 403 µM
GSSGSGSNA [Peptide10] | 1170 µM
